Test systems include RXF 393; DU-145; SF-295; M14; LOX IMVI; MCF7; CCRF-CEM; UACC-257; OVCAR-5; TK-10; HOP-62; OVCAR-8; ACHN; T47D; EKVX; MDA-MB-435; SK-OV-3; K562; SK-MEL-28; DLD-1.
Holding throughout (test): DTP human tumour cell line panel, 48 h

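Grown in 96-well plates, cells were treated for 48 hours with each compound at five concentrations. Insufficient inhibition: endpoint recorded as highest concentration tested. GI50 is the concentration that inhibits growth by half.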 Active and inactive are the calls of the source. Cut-off read from the data, not from the text of the source: active = GI50 up to about 1.1 µM and inactive = higher.

`CN(C)CCCN1c2ccccc2Sc2ccc3ccccc3c21`: the GI50 in the test on RXF 393 is 1.65 µM (inactive); in the test with DU-145, 12.8 µM (inactive); in the test on SF-295, 13.2 µM (inactive); with M14, 1.79 µM (inactive); in the test with LOX IMVI, 4.91 µM (inactive); in the test on MCF7, 5.75 µM (inactive). Further, the GI50 in the test with CCRF-CEM is 2.23 µM (inactive); with UACC-257, 1.84 µM (inactive); in the test with OVCAR-5 it was 11.3 µM (inactive); in the test on TK-10, 4.45 µM (inactive); with HOP-62, 12 µM (inactive); in the test on OVCAR-8 it was 12.7 µM (inactive). The GI50 was 8.3 µM (inactive) in the test with ACHN; 2.05 µM (inactive) with T47D; 10.7 µM (inactive) with EKVX; 3.1 µM (inactive) with MDA-MB-435; 14.2 µM (inactive) in the test with SK-OV-3; 1.86 µM (inactive) in the test on K562. Also, the GI50 in the test with SK-MEL-28 is 2.08 µM (inactive).

`CCOC(=O)c1cccc(NC(=O)CBr)c1`: the GI50 in the test with RXF 393 was 1.72 µM (inactive); in the test with DU-145 it was 1.82 µM (inactive); in the test on SF-295, 4.36 µM (inactive); in the test on M14, 1.3 µM (inactive); in the test on LOX IMVI it was 0.0904 µM (active); with MCF7, 1.19 µM (inactive). Also, the concentration for 50% growth inhibition (GI50) is 0.0618 µM (active) in the test with CCRF-CEM; 1.82 µM (inactive) with UACC-257; 1.75 µM (inactive) in the test on OVCAR-5; 1.67 µM (inactive) in the test on TK-10; 1.73 µM (inactive) in the test on HOP-62; 1.11 µM (active) with OVCAR-8. The GI50 was 1.56 µM (inactive) in the test on ACHN; 1.7 µM (inactive) in the test with T47D; 1.62 µM (inactive) in the test on EKVX; 1.1 µM (active) with MDA-MB-435; 1.85 µM (inactive) with SK-OV-3; 0.362 µM (active) in the test with K562. Also, in the test with SK-MEL-28, the GI50 is 2.62 µM (inactive).

Take `N#CC(C(=O)CCC(=O)Nc1ccc(Cl)cc1)c1ccc(Cl)cc1` (stereo not given): the GI50 is > 100 µM (inactive) with SF-295; 52 µM (inactive) with M14; 78.5 µM (inactive) with LOX IMVI; 71.3 µM (inactive) in the test with DLD-1; > 100 µM (inactive) with CCRF-CEM; > 100 µM (inactive) with UACC-257. In addition, the GI50 in the test on OVCAR-5 is > 100 µM (inactive); with TK-10, > 100 µM (inactive); with HOP-62, > 100 µM (inactive); with OVCAR-8, > 100 µM (inactive); in the test with ACHN it was 77.1 µM (inactive); in the test on EKVX it was > 100 µM (inactive). Besides, the GI50 is > 100 µM (inactive) in the test with SK-OV-3 and 18.9 µM (inactive) in the test on K562.

`COc1cc(/C=C(\C)[N+](=O)[O-])cc(OC)c1`: the GI50 is 7.48 µM (inactive) with RXF 393; 18.7 µM (inactive) in the test on DU-145; 25.8 µM (inactive) in the test with SF-295; 14.8 µM (inactive) in the test with M14; 3.08 µM (inactive) in the test on LOX IMVI; 6.73 µM (inactive) in the test with MCF7. The GI50 is 2.4 µM (inactive) in the test with CCRF-CEM; 15.5 µM (inactive) in the test on UACC-257; 20.1 µM (inactive) in the test on OVCAR-5; 11.8 µM (inactive) in the test on TK-10; 19.2 µM (inactive) with HOP-62; 15.6 µM (inactive) in the test with OVCAR-8. Further, the GI50 in the test on ACHN was 16.4 µM (inactive); with T47D, 6.47 µM (inactive); with EKVX it was 19.2 µM (inactive); in the test with MDA-MB-435, 14.9 µM (inactive); with SK-OV-3, > 100 µM (inactive); with K562, 2.69 µM (inactive). Moreover, the GI50 in the test on SK-MEL-28 is 18.4 µM (inactive).

As for `CN(CCc1ccccn1)c1ccc2c(c1)C(=O)c1ccccc1-2`, the GI50 with RXF 393 was > 100 µM (inactive); in the test on DU-145, > 100 µM (inactive); in the test on SF-295 it was 91.4 µM (inactive); in the test on M14, > 100 µM (inactive); in the test with LOX IMVI, > 100 µM (inactive); with MCF7 it was > 100 µM (inactive). Besides, the GI50 in the test with CCRF-CEM was > 100 µM (inactive); with UACC-257 it was 54.6 µM (inactive); in the test with OVCAR-5 it was > 100 µM (inactive); in the test with TK-10, > 100 µM (inactive); in the test with HOP-62 it was > 100 µM (inactive); with OVCAR-8, 99.1 µM (inactive). Moreover, the GI50 in the test on ACHN is > 100 µM (inactive); with T47D, 73.8 µM (inactive); with EKVX, 18.5 µM (inactive); in the test on MDA-MB-435, > 100 µM (inactive); in the test on SK-OV-3, > 100 µM (inactive); with K562 it was 51.8 µM (inactive). Moreover, the GI50 in the test on SK-MEL-28 is > 100 µM (inactive).

Take `CC(=O)C1CCN(c2ccccc2)C1` (stereo not given): the GI50 in the test on RXF 393, in the test on SF-295, in the test with M14, in the test with DLD-1, in the test with CCRF-CEM and in the test on UACC-257 was > 100 µM (inactive) in each case. Further, the GI50 in the test with OVCAR-5, with TK-10, in the test with HOP-62, in the test on OVCAR-8, with ACHN and with EKVX was > 100 µM (inactive) each time. Moreover, the GI50 with SK-OV-3, with K562 and in the test with SK-MEL-28 was > 100 µM (inactive) throughout.

Take `Cc1ccc(N/N=C/C2=CC(C)(C)C(C#N)(C#N)C(O)=C2C#N)cc1`: the GI50 in the test on RXF 393 was 33.2 µM (inactive); in the test on DU-145 it was 66.7 µM (inactive); in the test with SF-295, 69.3 µM (inactive); in the test with M14 it was 49.4 µM (inactive); in the test on LOX IMVI it was 65.8 µM (inactive); with MCF7 it was > 100 µM (inactive). The GI50 in the test on CCRF-CEM is 24.5 µM (inactive); in the test with UACC-257, 38.8 µM (inactive); in the test with OVCAR-5, > 100 µM (inactive); with TK-10, 99.5 µM (inactive); in the test with HOP-62, 78.3 µM (inactive); in the test on OVCAR-8, 38.4 µM (inactive). Moreover, the GI50 is 45.5 µM (inactive) in the test on ACHN; 67.3 µM (inactive) in the test on T47D; 61.1 µM (inactive) in the test on EKVX; 62.5 µM (inactive) in the test with MDA-MB-435; 58.2 µM (inactive) in the test with SK-OV-3; 21.3 µM (inactive) in the test with K562. The GI50 with SK-MEL-28 is 85.5 µM (inactive).

With `CC(C)(C)[Si](C)(C)OCC1OC(n2cnc3c(=O)[nH]c(N)nc32)C(O[Si](C)(C)C(C)(C)C)C1O[Si](C)(C)C(C)(C)C` (stereo not given), the GI50 with RXF 393 is 2.04 µM (inactive); in the test with DU-145, 2.33 µM (inactive); with SF-295, 1.55 µM (inactive); with M14, 1.5 µM (inactive); in the test on LOX IMVI, 2.09 µM (inactive); in the test on MCF7 it was 2.33 µM (inactive). Besides, the GI50 in the test with CCRF-CEM is 1.3 µM (inactive); in the test with UACC-257, 1.78 µM (inactive); in the test with OVCAR-5, 2.33 µM (inactive); with TK-10, 2.34 µM (inactive); with HOP-62 it was 2.64 µM (inactive); in the test on OVCAR-8, 3.2 µM (inactive). The GI50 with ACHN was 2.08 µM (inactive); with T47D it was 2.09 µM (inactive); with EKVX, 19.5 µM (inactive); with MDA-MB-435, 1.47 µM (inactive); in the test with SK-OV-3 it was 1.95 µM (inactive); with K562 it was 1.22 µM (inactive). Further, in the test with SK-MEL-28, the GI50 was 1.93 µM (inactive).

On to `CC(=O)/C(=C/NC(=S)c1cccnc1)C(=O)Nc1ccccc1C`, for which the GI50 in the test on RXF 393, in the test on DU-145, in the test with SF-295, in the test with M14, in the test on LOX IMVI and in the test on MCF7 was > 100 µM (inactive) throughout. Moreover, the GI50 with CCRF-CEM is > 100 µM (inactive); in the test with UACC-257 it was > 100 µM (inactive); in the test with OVCAR-5 it was > 100 µM (inactive); in the test with TK-10, > 100 µM (inactive); in the test with HOP-62, > 100 µM (inactive); with OVCAR-8, 52.6 µM (inactive). Moreover, the GI50 in the test with ACHN, in the test with T47D, with EKVX, in the test on MDA-MB-435, in the test on SK-OV-3 and with K562 was > 100 µM (inactive) throughout. Further, in the test on SK-MEL-28, the GI50 is > 100 µM (inactive).

As for `CN(CCc1ccccn1)c1ccc2c(c1)Cc1ccccc1-2`, the GI50 in the test on RXF 393 is 25.1 µM (inactive); in the test on DU-145, 43.7 µM (inactive); in the test on SF-295, 12.1 µM (inactive); in the test with M14, 26.7 µM (inactive); in the test with LOX IMVI, 16.3 µM (inactive); in the test on MCF7 it was 20.1 µM (inactive). Moreover, the GI50 with CCRF-CEM is 10.2 µM (inactive); in the test with UACC-257 it was 26.2 µM (inactive); in the test on OVCAR-5 it was 28.4 µM (inactive); with TK-10 it was 31.5 µM (inactive); in the test with HOP-62, 16.1 µM (inactive); in the test on OVCAR-8, 18.4 µM (inactive). Moreover, the GI50 in the test on ACHN was 22.5 µM (inactive); in the test with T47D, 25.2 µM (inactive); with EKVX, 16.6 µM (inactive); in the test on MDA-MB-435 it was 31 µM (inactive); in the test with SK-OV-3 it was 24.2 µM (inactive); in the test with K562, 9.31 µM (inactive). For the same compound, the GI50 in the test with SK-MEL-28 is 29.2 µM (inactive).

Turning to `C=C1C(=O)C23CC1C[C@H](OC(C)=O)C2C1(C)C(OC(C)=O)C[C@H](O)C(C)(C)[C@H]1C(O)[C@@H]3OC(C)=O` (stereo not given in full), the GI50 was 7.24 µM (inactive) in the test on RXF 393; 18.1 µM (inactive) in the test on DU-145; 24.8 µM (inactive) in the test with SF-295; 6.5 µM (inactive) with M14; 14.9 µM (inactive) in the test with LOX IMVI; 5.78 µM (inactive) in the test with MCF7. For the same compound, the GI50 was 2.24 µM (inactive) in the test on CCRF-CEM; 11.9 µM (inactive) in the test with UACC-257; 14.6 µM (inactive) with OVCAR-5; 3.79 µM (inactive) in the test with TK-10; 18.9 µM (inactive) in the test on HOP-62; 2.96 µM (inactive) with OVCAR-8. Also, the GI50 was 11.9 µM (inactive) in the test on ACHN; 6.67 µM (inactive) in the test with T47D; 13.1 µM (inactive) in the test with EKVX; 8.09 µM (inactive) with MDA-MB-435; 24.8 µM (inactive) in the test on SK-OV-3; 3.56 µM (inactive) with K562. Further, the GI50 in the test with SK-MEL-28 is 11.9 µM (inactive).

The values above are taken from ChEMBL document CHEMBL1201862, “PubChem BioAssay data set” (2004).
